Mortality data for one molecule are collected here from patent US7560456B2, “Pesticidal pyridinecarboxamide derivatives” (Merial Limited, priority 2002, dated 2009).

In test [1] the test system is black bean aphids (Aphis fabae). Put plainly: Method B: root-systemic test, aqueous solution of the formulated preparation pipetted into the bottle of field bean (Vicia faba) populated with aphids. It counts as in vivo. Particulars: 10 ppm (based on content of active compound), 4 ml solution pipetted into bottle, after 3 and 6 days of storage, read-out: mortality among the aphids, by root-systemic action. The procedure: Germinated field bean seeds (Vicia faba) with seed roots were transferred into brown glass bottles filled with tap water. Four milliliters of an aqueous solution of the formulated preparation to be examined were pipetted into the brown glass bottle.
The field bean was then heavily populated with about 100 black bean aphids (Aphis fabae). Plants and aphids were then stored in a climatized chamber (16 hours of light/day, 25° C., 40-60% relative atmospheric humidity). After 3 and 6 days of storage, the root-systemic effect of the preparation on the aphids was determined.

The test system is the same in test [2]. Put plainly: whole plant or invertebrate. Particulars: in Vicia faba, read-out: mortality among the aphids.

Take `C=CCSC(=NC(=O)c1cnccc1C(F)(F)F)NCc1ccccc1` [Compound A-724, 1-benzyl-S-(2-propenyl)-3-(4-trifluoromethyl-3-pyridylcarbonyl)isothiourea]: in test [1], the mortality (usually the share of the test organisms that died) at 10 ppm was at least 80%. Moreover, in test [2], the mortality at 100 ppm is at least 50%.
